33 compounds from patent publication US6787125B1, “Compound screening method” (priority 1999, dated 2004) can be followed below.

The test system of this test is C. elegans. In kind it is in vivo. The source says: Nematode worms that are placed in liquid culture will move in such a way that they maintain a more or less even (or homogeneous) distribution throughout the culture. Nematode worms that are defective in movement will precipitate to the bottom in liquid culture.
Advanced multi-well plate readers are able to detect sub-regions of the wells of multi-well plates. By using these plate readers it is possible to take measurements in selected areas of the surface of the wells of the multi-well plates. If the area of measurement is centralized, so that only the middle of the well is measured, a difference in nematode autofluorescence (fluorescence which occurs in the absence of any external marker molecule) or optical density can be observed in the wells containing nematodes that move normally as compared to wells containing nematodes that are defective for movement. For the wells containing the nematodes that move normally, a low level of autofluorescence or optical density will be observed, whilst a high level of autofluorescence or optical density can be observed in the wells that contain the nematodes that are defective in movement. Optical density is measured using a variation of the platelet aggregation assay, which is well known in the art. Using the MRX revelation device from Dynex (USA), optical density can be measured at multiple points per well, showing the precipitation pattern of the nematodes.
In an adaptation of the movement assay, autofluorescence or optical density measurements can be taken in two areas of the surface of the well, one measurement in the centre of the well, and on measurement on the edge of the well. Comparing the two measurements gives analogous results as in the case if only the centre of the well is measured but the additional measurement of the edge of the well results in an extra control and somewhat more distinct results.

Counter-ions that a name gives are not always drawn. Like-named read-outs stand apart in the source and are kept apart here.

In the case of `CC(N)(COP(=O)(O)Oc1ccccc1)C(=O)O` (stereo not shown) [MSOPPE], the “movement assay reading, first number column (no head printed)” value (Table 10 c3) was determined as 23760. For the same compound, the “movement assay reading, second number column (no head printed)” value (Table 10 c4) stood at 44614. The “hit call: detectable change in the movement behaviour” value (“hit call: detectable change” for short) (Table 10 c7) was “HIT”.
On the same counts, the results for `N[C@@H](CP(=O)(O)O)C(=O)O` [L-AP3] are 22073, 41858 and “HIT”.
The like results for `COc1cc2nc(N3CCN(C(=O)c4ccco4)CC3)nc(N)c2cc1OC` [Prazosin] were, in that order, 94689, 113608 and “HIT”.
On the same counts, the results for “7-(Dimethylcarbamoyloxy)-6-phenylpyrrolo” are 14278, 32900 and “HIT”.
`O=C(O)c1cc2ccccc2[nH]1` [Indole-2-carboxylic acid]: the “movement assay reading, first number column (no head printed)” value (Table 10 c3) was 19362. For the same compound, under “Table 10 c4”, the “movement assay reading, second number column (no head printed)” value is recorded as 43403. The “hit call: detectable change” value (Table 10 c7) is listed as “HIT”.
The like results for `CC(=O)O[C@H](CC(=O)[O-])C[N+](C)(C)C` [(n)-Acetylcarnitine] were, in that order, 23457, 44156 and “HIT”.
As to `Oc1ccc2c3c1O[C@H]1c4c(c5ccccc5n4Cc4ccccc4)C[C@@]4(O)[C@@H](C2)N(CC2CC2)CC[C@]314` [N-Benzyl naltrindole], the “movement assay reading, first number column (no head printed)” value (Table 10 c3) worked out at 14932. Besides, under “Table 10 c4”, the “movement assay reading, second number column (no head printed)” value is 31760. In addition, the “hit call: detectable change” value (Table 10 c7) is “HIT”.
The like results for `NC1(C(=O)O)CCCC1` [Cycloleucine] were, in that order, 19234, 36560 and “HIT”.
As to `NC(CCP(=O)(O)O)C(=O)O` [L-AP4], where the note is “Table 10 c3”, the “movement assay reading, first number column (no head printed)” value worked out at 19824. Further, the “movement assay reading, second number column (no head printed)” value (Table 10 c4) was found to be 39523. Besides, the “hit call: detectable change” value (Table 10 c7) was “HIT”.
On the same counts, the results for `NC(CCCP(=O)(O)O)C(=O)O` [D-AP5] are 19717, 41697 and “HIT”.
In the case of `O=C(O)[C@@H]1C[C@@H](C(=O)O)N1` [tADA], the “movement assay reading, first number column (no head printed)” value (Table 10 c3) came out at 16096. The “movement assay reading, second number column (no head printed)” value (Table 10 c4) came to 32342. In addition, the “hit call: detectable change” value (Table 10 c7) is “HIT”.
The like results for `CCN(CC)CCOc1ccc(Cc2ccccc2)cc1` [DPPE] were, in that order, 20365, 43629 and “HIT”.
Take `NC(CCCCCC(=O)O)C(=O)O` (racemic) [DL-2-Aminosuberic acid]: for the setting “in vivo”, the “hit call: detectable change” value is listed as “HIT”; the “movement assay reading, first number column (no head printed)” value is 17141; the “movement assay reading, second number column (no head printed)” value is 33518.
For the compound `N[C@H](C(=O)O)[C@H](CC(=O)O)c1ccc(Cl)cc1` [(2S,3R)-Chloropheg], for the setting “Table 10 c3”, the “movement assay reading, first number column (no head printed)” value is given as 21514. Besides, the “movement assay reading, second number column (no head printed)” value (Table 10 c4) came to 48736. The “hit call: detectable change” value (Table 10 c7) was “HIT”.
The like results for `CN(C)CCCn1cc(C2=C(c3c[nH]c4ccccc34)C(=O)NC2=O)c2ccccc21` [GF 109203X] were, in that order, 15685, 34448 and “HIT”.
Regarding `CC#CCOC(=O)C1=CCCN(C)C1` [Arecaidine but-2-ynyl ester], the “movement assay reading, first number column (no head printed)” value (Table 10 c3) came out at 20002. In addition, the “movement assay reading, second number column (no head printed)” value (Table 10 c4) is listed as 37675. The “hit call: detectable change” value (Table 10 c7) is on record as “HIT”.
On the same counts, the results for `NCC(O)COc1cccc2ccccc12` (stereo not shown) [N-desisopropyl propanolol] are 23737, 43102 and “HIT”.
`CCCCCCC(C)(C)c1cc(O)c2c(c1)OC(C)(C)[C@@H]1CC=C(CO)C[C@@H]21` [HU 210]: the “movement assay reading, first number column (no head printed)” value (Table 10 c3) was 15481. Where the note is “Table 10 c4”, the “movement assay reading, second number column (no head printed)” value came out at 33514. Besides, the “hit call: detectable change” value (Table 10 c7) is listed as “HIT”.
With `CC(C)(Oc1ccc(Cl)cc1)C(=O)O` [Clofibric acid], the “movement assay reading, first number column (no head printed)” value (Table 10 c3) was 22933. For the same compound, the “movement assay reading, second number column (no head printed)” value (Table 10 c4) was determined as 40916. The “hit call: detectable change” value (Table 10 c7) was “HIT”.
The like results for `CC(=O)N[C@@H](CC(=O)N[C@@H](CCC(=O)O)C(=O)O)C(=O)O` [Spaglumic acid] were, in that order, 20295, 38417 and “HIT”.
On the same counts, the results for S(-)-Atenolol are 18176, 36336 and “HIT”.
The like results for `CC(C)(Cc1c[nH]c2ccc(Cl)cc12)NCCOc1ccccc1OCC1CC1` [RS 17053] were, in that order, 14439, 32050 and “HIT”.
Consider `COc1ccc(CNC(=O)/C=C/c2ccc3[nH]cc(CCN(C)C)c3c2)cc1` [GR 46611], for which, where the note is “Table 10 c3”, the “movement assay reading, first number column (no head printed)” value is on record as 15815. For the same compound, under “Table 10 c4”, the “movement assay reading, second number column (no head printed)” value is given as 33199. For the same compound, the “hit call: detectable change” value (Table 10 c7) is on record as “HIT”.
Turning to `O=c1[nH]c2cc(Cl)ccc2c(O)c1-c1cccc(Oc2ccccc2)c1` [L-701,324], the “movement assay reading, first number column (no head printed)” value (Table 10 c3) is given as 14647. The “movement assay reading, second number column (no head printed)” value (Table 10 c4) is given as 32476. In addition, under “Table 10 c7”, the “hit call: detectable change” value is given as “HIT”.
On the same counts, the results for `N[C@@H](CCCP(=O)(O)O)C(=O)O` [L-AP5] are 21446, 42393 and “HIT”.
In the case of `OCC(O)COc1cccc2ccccc12` (stereo not shown) [Propanolol glycol], the “movement assay reading, first number column (no head printed)” value (Table 10 c3) was determined as 17134. Also, under “Table 10 c4”, the “movement assay reading, second number column (no head printed)” value came to 34849.
As to `O=C(O)[C@@H]1C[C@H](C(=O)O)N1` [cis-Azetidine-2,4-dicarboxylic acid], the “movement assay reading, first number column (no head printed)” value (Table 10 c3) was 19503. Moreover, the “movement assay reading, second number column (no head printed)” value (Table 10 c4) is given as 40568. Besides, the “hit call: detectable change” value (Table 10 c7) is listed as “HIT”.
On the same counts, the results for `CP(=O)(O)C1=CCNCC1` [TPMPA] are 21792, 120778 and “HIT”.
Take `COc1ccc(CCN(C)CCc2ccc(OC)c(OC)c2)cc1OC` [YS-035]: the “movement assay reading, first number column (no head printed)” value (Table 10 c3) was 21415. In addition, where the note is “Table 10 c4”, the “movement assay reading, second number column (no head printed)” value is 42457. Also, the “hit call: detectable change” value (Table 10 c7) is listed as “HIT”.
On the same counts, the results for `CC(=O)N1CCN(c2ccc(OCC3COC(Cn4ccnc4)(c4ccc(Cl)cc4Cl)O3)cc2)CC1` (stereo not shown) [Ketoconazole] are 15803, 33531 and “HIT”.
In the case of `N[C@@H](COP(=O)(O)O)C(=O)O` [O-Phospho-L-serine], the “movement assay reading, first number column (no head printed)” value (Table 10 c3) is recorded as 20292. Under “Table 10 c4”, the “movement assay reading, second number column (no head printed)” value was determined as 41086. Also, under “Table 10 c7”, the “hit call: detectable change” value was “HIT”.
In the case of `Cc1nccc2c1[nH]c1ccccc12` [Harmane HCl], the “movement assay reading, first number column (no head printed)” value (Table 10 c3) worked out at 1843115. For the same compound, the “movement assay reading, second number column (no head printed)” value (Table 10 c4) was found to be 555251.
For `C=CC(N)CCC(=O)O` (stereo not shown) [Vigabatrin], the “movement assay reading, first number column (no head printed)” value (Table 10 c3) was determined as 20828. Moreover, the “movement assay reading, second number column (no head printed)” value (Table 10 c4) is 61410. For the same compound, the “hit call: detectable change” value (Table 10 c7) was “HIT”.
